# According to ChEMBL document CHEMBL1671626, “In vitro profiling of ceftaroline against a collection of recent bacterial clinical isolates from across the United States” (2008):
# How the values were obtained:
# Format in all cases: functional
# Providencia sp. = assay: Antibacterial activity against ceftazidime-susceptible Providencia sp. by CLSI M7-A7 broth microdilution method
# Streptococcus pyogenes = assay: Antibacterial activity against erythromycin-nonsusceptible Streptococcus pyogenes by CLSI M7-A7 broth microdilution method
# Streptococcus pneumoniae [1] = assay: Antibacterial activity against penicillin-susceptible Streptococcus pneumoniae assessed as resistant isolates by CLSI M7-A7 broth microdilution method
# Haemophilus influenzae [2] = assay: Antibacterial activity against beta lactamase-positive Haemophilus influenzae by CLSI M7-A7 broth microdilution method
# Acinetobacter [3] = assay: Antibacterial activity against multidrug-resistant Acinetobacter by CLSI M7-A7 broth microdilution method
# Citrobacter freundii [4] = assay: Antibacterial activity against ceftazidime-nonsusceptible Citrobacter freundii assessed as susceptible isolates by CLSI M7-A7 broth microdilution method
# Morganella morganii [5] = assay: Antibacterial activity against ceftazidime-susceptible Morganella morganii by CLSI M7-A7 broth microdilution method
# Morganella morganii [6] = assay: Antibacterial activity against ceftazidime-susceptible Morganella morganii assessed as resistant isolates by CLSI M7-A7 broth microdilution method
# Staphylococcus aureus [7] = assay: Antibacterial activity against methicillin-resistant Staphylococcus aureus by CLSI M7-A7 broth microdilution method
# Serratia marcescens [8] = assay: Antibacterial activity against ceftazidime-susceptible Serratia marcescens by CLSI M7-A7 broth microdilution method
# Enterobacteriaceae [9] = assay: Antibacterial activity against ceftazidime-nonsusceptible Enterobacteriaceae assessed as resistant isolates by CLSI M7-A7 broth microdilution method
# Citrobacter freundii [10] = assay: Antibacterial activity against ceftazidime-susceptible Citrobacter freundii assessed as resistant isolates by CLSI M7-A7 broth microdilution method
# Staphylococcus aureus [11] = assay: Antibacterial activity against methicillin-susceptible Staphylococcus aureus assessed as resistant isolates by CLSI M7-A7 broth microdilution method
# Haemophilus influenzae [12] = assay: Antibacterial activity against beta lactamase-positive Haemophilus influenzae assessed as susceptible isolates by CLSI M7-A7 broth microdilution method
# Acinetobacter [13] = assay: Antibacterial activity against imipenem-susceptible Acinetobacter assessed as resistant isolates by CLSI M7-A7 broth microdilution method
# Streptococcus pneumoniae [14] = assay: Antibacterial activity against penicillin-susceptible Streptococcus pneumoniae assessed as susceptible isolates by CLSI M7-A7 broth microdilution method
# Enterobacter cloacae [15] = assay: Antibacterial activity against ceftazidime-nonsusceptible Enterobacter cloacae assessed as susceptible isolates by CLSI M7-A7 broth microdilution method
# Staphylococcus aureus [16] = assay: Antibacterial activity against methicillin-susceptible Staphylococcus aureus by CLSI M7-A7 broth microdilution method
# Moraxella catarrhalis = assay: Antibacterial activity against beta lactamase-positive Moraxella catarrhalis assessed as susceptible isolates by CLSI M7-A7 broth microdilution method
# Enterococcus faecium = assay: Antibacterial activity against vancomycin-resistant Enterococcus faecium by CLSI M7-A7 broth microdilution method
# Proteus mirabilis [17] = assay: Antibacterial activity against ceftazidime-susceptible Proteus mirabilis by CLSI M7-A7 broth microdilution method
# Enterococcus faecalis [18] = assay: Antibacterial activity against vancomycin-susceptible Enterococcus faecalis by CLSI M7-A7 broth microdilution method
# Serratia marcescens [19] = assay: Antibacterial activity against ceftazidime-susceptible Serratia marcescens assessed as resistant isolates by CLSI M7-A7 broth microdilution method
# Streptococcus agalactiae = assay: Antibacterial activity against erythromycin-susceptible Streptococcus agalactiae by CLSI M7-A7 broth microdilution method
# Klebsiella pneumoniae [20] = assay: Antibacterial activity against ceftazidime-susceptible Klebsiella pneumoniae assessed as resistant isolates by CLSI M7-A7 broth microdilution method
# Enterobacteriaceae [21] = assay: Antibacterial activity against ceftazidime-susceptible Enterobacteriaceae assessed as susceptible isolates by CLSI M7-A7 broth microdilution method
# Klebsiella pneumoniae [22] = assay: Antibacterial activity against ceftazidime-nonsusceptible Klebsiella pneumoniae by CLSI M7-A7 broth microdilution method
# Klebsiella pneumoniae [23] = assay: Antibacterial activity against ceftazidime-susceptible Klebsiella pneumoniae by CLSI M7-A7 broth microdilution method
# Proteus mirabilis [24] = assay: Antibacterial activity against ceftazidime-susceptible Proteus mirabilis assessed as resistant isolates by CLSI M7-A7 broth microdilution method
# Enterobacteriaceae [25] = assay: Antibacterial activity against ceftazidime-nonsusceptible Enterobacteriaceae assessed as susceptible isolates by CLSI M7-A7 broth microdilution method
# Escherichia coli [26] = assay: Antibacterial activity against ceftazidime-susceptible Escherichia coli assessed as susceptible isolates by CLSI M7-A7 broth microdilution method
# Serratia marcescens [27] = assay: Antibacterial activity against ceftazidime-susceptible Serratia marcescens assessed as susceptible isolates by CLSI M7-A7 broth microdilution method
# Enterobacter cloacae [28] = assay: Antibacterial activity against ceftazidime-nonsusceptible Enterobacter cloacae by CLSI M7-A7 broth microdilution method
# Staphylococcus aureus [29] = assay: Antibacterial activity against methicillin-resistant Staphylococcus aureus assessed as susceptible isolates by CLSI M7-A7 broth microdilution method
# Enterococcus faecalis [30] = assay: Antibacterial activity against vancomycin-resistant Enterococcus faecalis by CLSI M7-A7 broth microdilution method
# Klebsiella pneumoniae [31] = assay: Antibacterial activity against ceftazidime-susceptible Klebsiella pneumoniae assessed as susceptible isolates by CLSI M7-A7 broth microdilution method
# Staphylococcus aureus [32] = assay: Antibacterial activity against coagulase-negative and oxacillin-susceptible Staphylococcus aureus assessed as susceptible isolates by CLSI M7-A7 broth microdilution method
# Escherichia coli [33] = assay: Antibacterial activity against ceftazidime-susceptible Escherichia coli assessed as resistant isolates by CLSI M7-A7 broth microdilution method
# Haemophilus influenzae [34] = assay: Antibacterial activity against beta lactamase-negative Haemophilus influenzae assessed as susceptible isolates by CLSI M7-A7 broth microdilution method
# Staphylococcus aureus [35] = assay: Antibacterial activity against coagulase-negative and oxacillin-resistant Staphylococcus aureus assessed as resistant isolates by CLSI M7-A7 broth microdilution method
# Streptococcus pneumoniae [36] = assay: Antibacterial activity against penicillin-resistant Streptococcus pneumoniae by CLSI M7-A7 broth microdilution method
# Enterobacteriaceae [37] = assay: Antibacterial activity against ceftazidime-susceptible Enterobacteriaceae by CLSI M7-A7 broth microdilution method
# Staphylococcus aureus [38] = assay: Antibacterial activity against methicillin-susceptible Staphylococcus aureus assessed as susceptible isolates by CLSI M7-A7 broth microdilution method
# Streptococcus pneumoniae [39] = assay: Antibacterial activity against penicillin-susceptible Streptococcus pneumoniae by CLSI M7-A7 broth microdilution method
# Acinetobacter [40] = assay: Antibacterial activity against multidrug-resistant Acinetobacter assessed as resistant isolates by CLSI M7-A7 broth microdilution method
structure (smiles),measurement,setting,value
C[C@H]1COc2c(N3CCN(C)CC3)c(F)cc3c(=O)c(C(=O)O)cn1c23.C[C@H]1COc2c(N3CCN(C)CC3)c(F)cc3c(=O)c(C(=O)O)cn1c23.O [LEVOFLOXACIN],MIC50,Providencia sp.,0.25 µg/mL
same,MIC90,Providencia sp.,> 16 µg/mL
same,MIC50,Streptococcus pyogenes,0.5 µg/mL
same,MIC90,Streptococcus pyogenes,1 µg/mL
same,Activity,Streptococcus pneumoniae [1],1.5%
same,MIC50,Haemophilus influenzae [2],0.015 µg/mL
same,MIC90,Haemophilus influenzae [2],0.03 µg/mL
same,MIC50,Acinetobacter [3],16 µg/mL
same,Activity,Citrobacter freundii [4],72.7%
same,MIC50,Morganella morganii [5],≤ 0.03 µg/mL
same,MIC90,Morganella morganii [5],8 µg/mL
same,Activity,Morganella morganii [6],20.6%
same,MIC50,Staphylococcus aureus [7],8 µg/mL
same,MIC90,Staphylococcus aureus [7],> 16 µg/mL
same,MIC50,Serratia marcescens [8],0.12 µg/mL
same,MIC90,Serratia marcescens [8],1 µg/mL
same,Activity,Enterobacteriaceae [9],51.4%
same,Activity,Citrobacter freundii [10],0%
same,Activity,Staphylococcus aureus [11],15.2%
same,Activity,Haemophilus influenzae [12],100%
same,Activity,Acinetobacter [13],36.2%
same,Activity,Streptococcus pneumoniae [14],98.5%
same,Activity,Enterobacter cloacae [15],62.9%
same,MIC50,Staphylococcus aureus [16],0.12 µg/mL
same,MIC90,Staphylococcus aureus [16],16 µg/mL
same,Activity,Moraxella catarrhalis,100%
same,MIC,Enterococcus faecium,> 16 µg/mL
same,MIC50,Enterococcus faecium,> 16 µg/mL
same,MIC90,Enterococcus faecium,> 16 µg/mL
same,MIC50,Proteus mirabilis [17],0.06 µg/mL
same,MIC90,Proteus mirabilis [17],16 µg/mL
same,MIC50,Enterococcus faecalis [18],1 µg/mL
same,MIC90,Enterococcus faecalis [18],> 16 µg/mL
same,Activity,Serratia marcescens [19],1.7%
same,MIC50,Streptococcus agalactiae,0.5 µg/mL
same,MIC90,Streptococcus agalactiae,1 µg/mL
same,Activity,Klebsiella pneumoniae [20],1.4%
same,Activity,Enterobacteriaceae [21],89.6%
same,MIC50,Klebsiella pneumoniae [22],8 µg/mL
same,MIC90,Klebsiella pneumoniae [22],> 16 µg/mL
same,MIC50,Klebsiella pneumoniae [23],0.06 µg/mL
same,MIC90,Klebsiella pneumoniae [23],0.25 µg/mL
same,Activity,Proteus mirabilis [24],20.7%
same,Activity,Enterobacteriaceae [25],41.8%
same,Activity,Escherichia coli [26],86.4%
same,Activity,Serratia marcescens [27],98.3%
same,MIC50,Enterobacter cloacae [28],0.12 µg/mL
same,MIC90,Enterobacter cloacae [28],1 µg/mL
same,Activity,Staphylococcus aureus [29],25.6%
same,MIC50,Enterococcus faecalis [30],> 16 µg/mL
same,Activity,Klebsiella pneumoniae [31],98.1%
same,Activity,Staphylococcus aureus [32],81.6%
same,Activity,Escherichia coli [33],13.6%
same,Activity,Haemophilus influenzae [34],100%
same,Activity,Staphylococcus aureus [35],73.9%
same,MIC50,Streptococcus pneumoniae [36],0.5 µg/mL
same,MIC90,Streptococcus pneumoniae [36],1 µg/mL
same,MIC50,Enterobacteriaceae [37],0.06 µg/mL
same,MIC90,Enterobacteriaceae [37],4 µg/mL
same,Activity,Staphylococcus aureus [38],83.9%
same,MIC50,Streptococcus pneumoniae [39],0.5 µg/mL
same,MIC90,Streptococcus pneumoniae [39],1 µg/mL
same,Activity,Acinetobacter [40],87.5%
